These results are taken from US5563277A, “Process for preparing benzyl-substituted rhodanine derivatives” (Eli Lilly and Company, priority 1994, dated 1996).

This test deals with Acetic Acid Induced Colitis. The test is described as follows: Inhibition of Acetic Acid Induced Colitis. It is filed as in vivo, Male Sprague-Dawley rats. Conditions: rat; 30 mg/kg oral, 2 h before 2 ml of 2.5% acetic acid intracolonic enema, second dose 6 h after enema; colon lesions scored 0-4 twenty four hours later vs vehicle. On the procedure:
As noted above, the present invention provides a method of treating inflammatory bowel disease in mammals.
Male Sprague-Dawley rats from Charles River Laboratories, Portage, Mich. (weight approximately 250 g) were dosed orally with test compound (30 mg/kg) or vehicle (control). Two hours after dosing, each animal received 2 ml of a 2.5% acetic acid intracolonic enema via a cannula, the tip of which was placed 8 cm above the anal verge. This concentration of acetic acid produced a severe inflammatory response in the colon characterized by rectal bleeding, diarrhea, epithelial erosions and destructions of crypts and gland cells. Six hours from the enema the test animals were then given a second dose of test compound or vehicle. Twenty four hours later the test and control animals were killed and the distal ten centimeters of the colon were removed and opened longitudinally. The tissue lesions contained within the removed, opened, section of colon were scored by three independent blinded observers on a scale of 0 to 4 (zero=normal, four=worst inflammation). In each test group 5-7 rats were used. Test results from animals given test compound dissolved in vehicle were compared with test results from animals given vehicle alone in order to determine the percentage of lesion inhibition attributable to the test compound.

With `C[C@H](c1ccccc1)N1CS[C@@H](Cc2cc(C(C)(C)C)c(O)c(C(C)(C)C)c2)C1=O` [(3αR, 5S)-5-[[3,5-bis (1,1-dimethylethyl)-4-hydroxyphenyl]methyl]-3-(1-phenylethyl)-4-thiazolidinone], the “% Inhibition (percentage of lesion inhibition)” value was determined as 36%.

For `COC(=O)c1ccc(CN2CSC(Cc3cc(C(C)(C)C)c(O)c(C(C)(C)C)c3)C2=O)cc1` (stereo not shown) [5-[[3,5-bis(1,1-dimethylethyl)-4-hydroxyphenyl]methyl]-3-(carbomethoxybenzyl)-4-thiazolidinone], the “% Inhibition (percentage of lesion inhibition)” value was 11%.

With `C[C@H](c1ccccc1)N1CS[C@H](Cc2cc(C(C)(C)C)c(O)c(C(C)(C)C)c2)C1=O` [(3αR,5R)-5-[[3,5-bis(1,1-dimethylethyl)-4-hydroxyphenyl]methyl]-3-(1-phenylethyl)-4-thiazolidinone], the “% Inhibition (percentage of lesion inhibition)” value was 30%.

As to `CC(C)(C)c1cc(CC(S)C(=O)O)cc(C(C)(C)C)c1O` (stereo not shown) [3-[3,5-bis(1,1-dimethylethyl)-4-hydroxyphenyl]-2-mercaptopropanoic acid], the “% Inhibition (percentage of lesion inhibition)” value is 18%.
